Assay results: PubChem BioAssay (NCI)
Values joined by “and” are separate entries in the source; they are usually repeats but may differ in a detail not shown here. Equal values may be shown once.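 Growth conditions: 96-well plates. Treatment: test compound, 48 hours, 5 concentrations. Analysis: linear interpolation between bracketing concentrations; unreached endpoints set to highest concentration. The concentration for 50% growth inhibition is given as GI50. Definition used: TGI = concentration required for complete inhibition of growth.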

Experiments:
Assay in all cases: NCI tumour cell line growth inhibition, 48 h
ACHN renal = system: ACHN renal
RPMI-8226 leukemia = system: RPMI-8226 leukemia
HOP-62 NSCLC = system: HOP-62 NSCLC
IGROV1 ovarian = system: IGROV1 ovarian
LOX IMVI melanoma = system: LOX IMVI melanoma
HS 578T breast = system: HS 578T breast
KM12 colon = system: KM12 colon
M14 melanoma = system: M14 melanoma
HCC-2998 colon = system: HCC-2998 colon
PC-3 prostate = system: PC-3 prostate

| SMILES | GI50 (ACHN renal) | TGI (ACHN renal) | GI50 (RPMI-8226 leukemia) | TGI (RPMI-8226 leukemia) | GI50 (HOP-62 NSCLC) | TGI (HOP-62 NSCLC) | GI50 (IGROV1 ovarian) | TGI (IGROV1 ovarian) | GI50 (LOX IMVI melanoma) | TGI (LOX IMVI melanoma) | GI50 (HS 578T breast) | TGI (HS 578T breast) | GI50 (KM12 colon) | TGI (KM12 colon) | GI50 (M14 melanoma) | TGI (M14 melanoma) | GI50 (HCC-2998 colon) | TGI (HCC-2998 colon) | GI50 (PC-3 prostate) | TGI (PC-3 prostate) |
| --- | --- | --- | --- | --- | --- | --- | --- | --- | --- | --- | --- | --- | --- | --- | --- | --- | --- | --- | --- | --- |
| c1ccc2nc(Cn3c[n+](Cc4ccc5ccccc5n4)c4ccccc43)ccc2c1 | 14.6 µM | 31.1 µM | 0.681 µM | 4.05 µM | 2.97 µM | 13.7 µM | 1.65 µM | 8.27 µM | 1.91 µM | 7.8 µM | 3.19 µM | 18.8 µM | 1.61 µM | 4.54 µM | 1.99 µM | 6.99 µM | 2.76 µM | 13.6 µM | 2.48 µM | 12.2 µM |
| CN(C)c1ccc2nc3ccc(=[N+](C)C)cc-3oc2c1 | 7.28 µM | 52.4 µM | 0.684 µM | 21 µM | 3.58 µM | 50.5 µM | 1.86 µM | 5.01 µM | 2.32 µM | 9.28 µM | 15.8 µM | 64 µM | 1.18 µM | > 100 µM | 0.959 µM | 3.77 µM | 3.56 µM | > 100 µM | 0.52 µM | > 100 µM |
| C=C(C)[C@@H]1CC=C(CO)CC1 | > 10 µM | > 10 µM and 657 µM |  | > 10 µM | > 10 µM | > 10 µM and 961 µM | > 10 µM | > 10 µM and 1260 µM | > 10 µM | > 10 µM and 923 µM |  | > 10 µM | > 10 µM | > 10 µM and 1050 µM | > 10 µM | > 10 µM and 1410 µM | > 10 µM | > 10 µM and 1460 µM |  | > 10 µM |
| N=C(N)c1nn(C2OC(CO)C(O)C2O)c2nc[nH]c(=O)c12 (stereo not given) | 0.292 µM | 1.99 µM | 0.352 µM | 2.5 µM | 0.3 µM | 1.14 µM | 1.19 µM | 3.81 µM | 0.337 µM | 1.84 µM | 0.376 µM | 2.27 µM | 0.341 µM | 1.46 µM | 0.454 µM | 1.75 µM | 0.849 µM | 3.37 µM | 0.788 µM | 6.74 µM |
| O=C(Nc1cccc(Cl)c1)Nc1ncc(CCNc2ncnc3ccsc23)s1 | 2.3 µM and 2.06 µM | 16.8 µM and > 10 µM | 2.98 µM and 1.32 µM | 33.5 µM and 5.81 µM | 2.37 µM and 1.41 µM | 15.3 µM and > 10 µM | 7.43 µM and 3.6 µM | 44.1 µM and > 10 µM | 1.38 µM and 1.2 µM | > 43.9 µM | 2.92 µM and 0.64 µM | 39.7 µM and > 10 µM | 0.12 µM and 0.0657 µM | > 35.3 µM | 2.3 µM and 1.91 µM | 11.6 µM and > 10 µM | 9.38 µM and > 10 µM | 25.6 µM and > 10 µM | 1.05 µM and 1.92 µM | 13.8 µM and > 10 µM |
| O=C(CCl)c1ccc([N+](=O)[O-])o1 | 1.68 µM | 3.26 µM | 0.873 µM |  | 7.58 µM | 17.6 µM | 5.5 µM | 14 µM | 1.47 µM | 3.19 µM | 2.72 µM | 8.66 µM | 2.02 µM | 4.6 µM | 2.18 µM | 5.06 µM | 5.36 µM | 11.2 µM | 2.15 µM | 6.34 µM |
| CCc1c(C)[nH]c(/C=C2\N=C(c3ccc[nH]3)C=C2OC)c1C | 0.316 µM | 2.19 µM | 0.0239 µM | 1.05 µM | 0.25 µM | 4.04 µM | 0.274 µM | 3.53 µM | < 0.0328 µM |  | 0.164 µM | 2.3 µM | 0.0944 µM | 5.26 µM | 0.256 µM | 2.99 µM | 0.451 µM | 4.65 µM | 0.153 µM | 10.8 µM |
| O=C(O)CSSCC(=O)O |  | > 100 µM |  | > 100 µM |  | > 100 µM |  | > 100 µM |  | > 100 µM |  | > 100 µM |  | > 100 µM |  | > 100 µM |  | > 100 µM |  | > 100 µM |
| COc1cccc(C2=C(c3cn(C)c4ccccc34)C(=O)NC2=O)c1 | 7.76 µM | > 25 µM | 14.1 µM | > 25 µM | > 22.8 µM | > 25 µM | 21.8 µM | > 25 µM | 13 µM | > 25 µM | 4.8 µM | > 25 µM | 8.45 µM | > 25 µM | 18.9 µM | > 25 µM | > 22.1 µM | > 25 µM | 10.2 µM | > 25 µM |
| CC12CCC=CC1CCC1C2CCC2(C)C(c3ccc(=O)oc3)CCC12O (stereo not given) | 0.0297 µM | 0.128 µM | 0.0994 µM | 0.777 µM | 0.0511 µM | 0.21 µM | 0.0688 µM | 1.36 µM | 0.033 µM | 0.141 µM | 0.0292 µM | 0.308 µM | 0.134 µM | 1.45 µM | 0.154 µM | 0.519 µM | 0.342 µM | 3.42 µM | 0.0534 µM | 0.317 µM |
| O=C(O)[C@@H]1C2CC([C@@H]1C(=O)O)[C@H](N1C(=O)CCC1=O)[C@@H]2Br (stereo not given in full) |  | > 100 µM |  | > 100 µM |  | > 100 µM |  | > 100 µM |  | > 100 µM |  | > 100 µM |  | > 100 µM |  | > 100 µM |  | > 100 µM |  | > 100 µM |
| CCN(CC)c1ccc(/C=C/c2cc(C)c3ccccc3n2)cc1 | 6.12 µM | > 100 µM | 3.11 µM | 11.3 µM | 4.6 µM | 34.7 µM | 2.81 µM | 25.7 µM | 4.67 µM | 28.1 µM | 2.09 µM | 5.75 µM | 2.31 µM | 13.2 µM | 3.42 µM | 13.6 µM | 4.11 µM | 81.1 µM | 4.84 µM | > 100 µM |
| CCc1ccc(NC(=O)Nc2c[nH]c3ccccc23)cc1 | 23.2 µM | > 84.3 µM | 0.567 µM | > 100 µM | 16.7 µM | > 58.8 µM | 5.72 µM | > 45.5 µM | 25.8 µM | > 50.2 µM | 10.4 µM | > 67.8 µM | 5.63 µM | > 43.4 µM | > 39.8 µM | > 57 µM | 18 µM | > 50.8 µM | 5.13 µM | > 63.7 µM |
